The subject of assay [1] is MDA‐MB‐468. Put plainly: Cell growth inhibition, CellTiter‐Glo (CTG). The format is cell-based. The conditions noted are these: Homo sapiens, MDA-MB-468, 120 h; CTG, 5 days, n = 3. How it is done: (§1) All cells were grown in a humidified incubator at 37 °C and 5% CO2.
(§2) […] […] Relative viability was calculated by normalizing the raw luminescence counts of the treated groups to those of the DMSO control groups. IC₅₀ values were calculated using sigmoidal dose‐response curve fitting with GraphPad Prism 9.0 software.

Assay [2] deals with MDA‐MB‐231. Put plainly: Cell growth inhibition, CellTiter‐Glo (CTG). The format is cell-based. The conditions noted are these: Homo sapiens, MDA-MB-231, 120 h, read-out: IC50 MDA‐MB‐231; CTG, 5 days, n = 3. The protocol:
as §1, §2

The target in assay [3] is PARP1 (Homo sapiens, UniProt P09874). Put plainly: PARP enzymatic inhibition ELISA (PARP1). The format is biochemical. The conditions noted are these: for IC50: n = 3, mean ± SD. The protocol:
The PARP activity assay was performed by ChemPartner (Shanghai, China). Each well was precoated with histone (final conc.: 100 ng mL^−1) diluted in PBS buffer (contains 10 mmol L^−1 NaH2PO4 and 150 mmol L^−1 NaCl, pH 7.4) by incubation at 4 °C overnight. […] The reaction was initiated by the addition of 10 µL of PARP (final conc.: 0.007 nM/well) at room temperature for 60 min. Add 20 µL of anti‐Poly/Mono‐ADP Ribose Rabbit mAb. Incubate for 1.5 h at room temperature and wash the plate three times using PBST buffer. […] Incubate for 1 h at room temperature and wash the plate three times using PBST buffer. Add 25 µL Femto‐ECL Substrate A and Femto‐ECL Substrate B (1:1) mix. Immediately read chemiluminescence on Envision (Revvity, USA).
(In general: An ELISA detects its analyte on a solid surface through an enzyme-linked reagent.)

Assay [4] concerns the target T1, ATR (Homo sapiens, UniProt Q13535).
T1 construct: purchased Eurofins 14-953
Put plainly: ATR kinase inhibition, Mobility Shift Assay. The format is biochemical. The conditions noted are these: n = 3, mean ± SD. How it is done: The in vitro ATR kinase inhibitory activities were determined by ChemPartner Co., Ltd. (Shanghai, China) using the Mobility Shift Assay. The tested compound was dissolved with DMSO and diluted to 1000/3 × of the final desired highest inhibitor concentration in the reaction. […] The assay wells were incubated at 28 °C for 4 h.

PARP1, sequence (P09874 whole entry): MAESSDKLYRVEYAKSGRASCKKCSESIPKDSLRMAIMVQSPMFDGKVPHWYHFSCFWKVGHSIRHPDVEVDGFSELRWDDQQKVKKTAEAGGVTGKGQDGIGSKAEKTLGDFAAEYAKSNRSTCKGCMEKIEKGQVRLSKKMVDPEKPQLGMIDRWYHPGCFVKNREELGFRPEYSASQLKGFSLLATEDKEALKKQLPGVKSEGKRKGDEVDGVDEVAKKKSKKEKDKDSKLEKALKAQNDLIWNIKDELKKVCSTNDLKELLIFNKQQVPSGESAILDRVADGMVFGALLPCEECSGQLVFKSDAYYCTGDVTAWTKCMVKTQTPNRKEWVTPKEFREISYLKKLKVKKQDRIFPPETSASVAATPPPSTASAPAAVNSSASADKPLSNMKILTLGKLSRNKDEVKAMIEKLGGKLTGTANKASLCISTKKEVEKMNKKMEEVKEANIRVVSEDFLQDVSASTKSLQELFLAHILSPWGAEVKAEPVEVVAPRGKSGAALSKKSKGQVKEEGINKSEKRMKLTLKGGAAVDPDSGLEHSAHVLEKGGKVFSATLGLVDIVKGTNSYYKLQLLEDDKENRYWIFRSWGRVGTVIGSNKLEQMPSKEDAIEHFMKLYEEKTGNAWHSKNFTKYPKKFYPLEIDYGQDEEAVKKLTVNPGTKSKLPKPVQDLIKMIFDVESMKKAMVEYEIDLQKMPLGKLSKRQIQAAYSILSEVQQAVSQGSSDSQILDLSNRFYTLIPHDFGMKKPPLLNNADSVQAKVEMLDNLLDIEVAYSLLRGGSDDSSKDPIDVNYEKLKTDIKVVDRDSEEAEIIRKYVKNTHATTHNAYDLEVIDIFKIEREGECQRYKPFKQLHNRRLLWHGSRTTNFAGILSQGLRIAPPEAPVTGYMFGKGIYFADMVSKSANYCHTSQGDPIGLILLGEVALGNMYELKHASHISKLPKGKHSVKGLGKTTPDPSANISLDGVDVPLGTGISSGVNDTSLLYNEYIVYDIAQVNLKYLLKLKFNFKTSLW
T1 sequence (Q13535 whole entry): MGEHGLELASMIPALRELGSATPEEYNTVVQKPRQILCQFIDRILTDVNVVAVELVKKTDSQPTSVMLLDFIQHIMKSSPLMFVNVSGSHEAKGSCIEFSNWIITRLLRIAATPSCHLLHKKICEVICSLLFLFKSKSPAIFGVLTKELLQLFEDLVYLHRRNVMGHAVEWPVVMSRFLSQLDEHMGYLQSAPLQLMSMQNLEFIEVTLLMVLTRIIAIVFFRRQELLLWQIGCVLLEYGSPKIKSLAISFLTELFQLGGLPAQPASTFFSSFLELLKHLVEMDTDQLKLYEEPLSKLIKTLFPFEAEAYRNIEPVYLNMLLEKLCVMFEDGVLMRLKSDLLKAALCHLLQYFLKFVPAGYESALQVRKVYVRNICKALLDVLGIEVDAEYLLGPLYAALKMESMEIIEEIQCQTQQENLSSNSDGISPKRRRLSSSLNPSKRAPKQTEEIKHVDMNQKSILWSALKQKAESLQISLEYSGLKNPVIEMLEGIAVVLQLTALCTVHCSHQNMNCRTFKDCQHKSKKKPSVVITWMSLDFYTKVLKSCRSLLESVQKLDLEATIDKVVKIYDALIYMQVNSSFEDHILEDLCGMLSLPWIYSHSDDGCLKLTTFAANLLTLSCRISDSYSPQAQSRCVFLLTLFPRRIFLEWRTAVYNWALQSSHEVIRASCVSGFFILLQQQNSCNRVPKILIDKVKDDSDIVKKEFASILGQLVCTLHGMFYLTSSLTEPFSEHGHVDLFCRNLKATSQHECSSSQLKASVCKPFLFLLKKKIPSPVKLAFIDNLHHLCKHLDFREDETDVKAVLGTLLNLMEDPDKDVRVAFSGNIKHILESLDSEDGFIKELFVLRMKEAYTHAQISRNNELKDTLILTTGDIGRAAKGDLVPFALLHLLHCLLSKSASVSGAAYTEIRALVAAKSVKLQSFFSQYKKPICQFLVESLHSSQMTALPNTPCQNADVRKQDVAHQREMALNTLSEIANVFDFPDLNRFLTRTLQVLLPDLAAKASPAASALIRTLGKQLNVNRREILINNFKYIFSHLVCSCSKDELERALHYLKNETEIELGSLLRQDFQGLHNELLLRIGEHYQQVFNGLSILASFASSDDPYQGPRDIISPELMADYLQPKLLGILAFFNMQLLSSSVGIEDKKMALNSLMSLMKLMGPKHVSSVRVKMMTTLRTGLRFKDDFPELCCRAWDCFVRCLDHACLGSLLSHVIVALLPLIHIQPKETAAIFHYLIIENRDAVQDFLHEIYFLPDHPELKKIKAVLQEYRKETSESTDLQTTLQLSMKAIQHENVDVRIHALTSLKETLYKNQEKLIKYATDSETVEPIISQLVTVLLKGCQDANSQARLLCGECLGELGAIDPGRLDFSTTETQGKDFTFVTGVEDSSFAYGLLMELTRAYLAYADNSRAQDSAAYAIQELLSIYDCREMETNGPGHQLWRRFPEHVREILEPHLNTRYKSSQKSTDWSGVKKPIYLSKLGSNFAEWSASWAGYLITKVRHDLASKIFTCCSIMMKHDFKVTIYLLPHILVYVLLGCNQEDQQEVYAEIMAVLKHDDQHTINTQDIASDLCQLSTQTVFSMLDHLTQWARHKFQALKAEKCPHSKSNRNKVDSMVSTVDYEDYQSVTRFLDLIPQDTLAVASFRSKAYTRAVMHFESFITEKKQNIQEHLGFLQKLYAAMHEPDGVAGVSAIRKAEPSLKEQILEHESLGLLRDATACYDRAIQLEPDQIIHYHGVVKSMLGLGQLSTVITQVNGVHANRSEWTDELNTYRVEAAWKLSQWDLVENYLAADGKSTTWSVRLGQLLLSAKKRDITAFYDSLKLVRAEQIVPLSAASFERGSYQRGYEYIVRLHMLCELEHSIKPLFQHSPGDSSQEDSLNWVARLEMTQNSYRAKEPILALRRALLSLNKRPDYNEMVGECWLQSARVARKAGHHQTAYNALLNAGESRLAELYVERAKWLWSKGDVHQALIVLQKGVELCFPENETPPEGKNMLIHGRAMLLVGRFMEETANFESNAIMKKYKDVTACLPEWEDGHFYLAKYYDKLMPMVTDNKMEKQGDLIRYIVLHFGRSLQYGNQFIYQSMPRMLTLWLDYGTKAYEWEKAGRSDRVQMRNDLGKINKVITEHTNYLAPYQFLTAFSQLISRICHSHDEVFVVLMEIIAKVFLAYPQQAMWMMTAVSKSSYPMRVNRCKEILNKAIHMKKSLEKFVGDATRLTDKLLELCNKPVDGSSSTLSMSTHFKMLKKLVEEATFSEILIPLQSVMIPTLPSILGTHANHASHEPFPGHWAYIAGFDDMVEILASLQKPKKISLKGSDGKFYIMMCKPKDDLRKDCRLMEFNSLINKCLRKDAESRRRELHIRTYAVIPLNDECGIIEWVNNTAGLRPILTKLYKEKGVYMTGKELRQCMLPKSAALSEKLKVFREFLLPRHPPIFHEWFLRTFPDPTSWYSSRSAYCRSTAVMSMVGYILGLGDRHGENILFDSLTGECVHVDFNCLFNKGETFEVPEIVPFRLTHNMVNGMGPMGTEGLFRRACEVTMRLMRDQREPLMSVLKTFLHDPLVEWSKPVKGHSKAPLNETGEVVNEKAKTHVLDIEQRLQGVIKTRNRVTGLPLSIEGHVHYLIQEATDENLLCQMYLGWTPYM
T1 sequence (Q8WXE1 whole entry partner): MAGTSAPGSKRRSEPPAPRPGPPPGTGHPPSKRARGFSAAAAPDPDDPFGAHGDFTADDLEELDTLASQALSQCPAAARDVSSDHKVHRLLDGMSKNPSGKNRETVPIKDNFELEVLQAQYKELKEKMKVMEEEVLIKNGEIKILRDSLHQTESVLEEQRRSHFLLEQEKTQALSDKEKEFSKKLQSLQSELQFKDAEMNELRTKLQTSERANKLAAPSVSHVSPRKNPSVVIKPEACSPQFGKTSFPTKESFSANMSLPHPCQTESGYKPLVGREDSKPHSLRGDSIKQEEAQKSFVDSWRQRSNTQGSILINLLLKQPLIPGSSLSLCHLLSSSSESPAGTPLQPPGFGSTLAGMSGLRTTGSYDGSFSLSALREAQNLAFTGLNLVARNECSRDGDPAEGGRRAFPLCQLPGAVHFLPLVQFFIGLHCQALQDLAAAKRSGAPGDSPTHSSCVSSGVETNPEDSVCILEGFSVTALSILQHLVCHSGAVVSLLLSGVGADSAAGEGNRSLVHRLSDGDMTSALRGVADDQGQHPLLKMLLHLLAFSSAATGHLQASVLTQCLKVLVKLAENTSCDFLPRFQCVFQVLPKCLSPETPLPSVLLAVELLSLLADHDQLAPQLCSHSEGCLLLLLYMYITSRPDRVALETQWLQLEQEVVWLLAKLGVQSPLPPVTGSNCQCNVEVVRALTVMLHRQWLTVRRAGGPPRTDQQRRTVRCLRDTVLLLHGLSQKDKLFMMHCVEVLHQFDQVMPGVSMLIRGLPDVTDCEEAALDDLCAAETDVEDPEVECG

The term IC50 denotes the concentration that inhibits the measured activity by half. With `C[C@@H]1COCCN1c1cc(C2(NC(=O)c3ccc(CN4CCN(C(=O)c5cc(Cc6n[nH]c(=O)c7ccccc67)ccc5F)CC4)cc3)CC2)nc(-c2ccnc3[nH]ccc23)n1` [Compound A10, (R)‐4‐((4‐(2‐fluoro‐5‐((4‐oxo‐3,4‐dihydrophthalazin‐1‐yl)methyl)benzoyl)piperazin‐1‐yl)methyl)‐N‐(1‐(6‐(3‐methylmorpholino)‐2‐(1H‐pyrrolo[2,3‐b]pyridin‐4‐yl)pyrimidin‐4‐yl)cyclopropyl)benzamide], the IC50 in assay [1] is above 50 µM; in assay [2] it was above 50 µM; in assay [3], 0.0193 ± 0.0029 µM; in assay [4], 0.185 ± 0.0163 µM.

For the molecule `C[C@@H]1COCCN1c1cc(C2(NS(=O)(=O)c3ccc(C(=O)N4CCN(C(=O)c5cc(Cc6n[nH]c(=O)c7ccccc67)ccc5F)CC4)cc3)CC2)nc(-c2ccnc3[nH]ccc23)n1` [Compound A8, (R)‐4‐(4‐(2‐fluoro‐5‐((4‐oxo‐3,4‐dihydrophthalazin‐1‐yl)methyl)benzoyl)piperazine‐1‐carbonyl)‐N‐(1‐(6‐(3‐methylmorpholino)‐2‐(1H‐pyrrolo[2,3‐b]pyridin‐4‐yl)pyrimidin‐4‐yl)cyclopropyl)benzenesulfonamide], the IC50 was 0.62 ± 0.06 µM in assay [1], above 50 µM in assay [2], 0.00075 ± 0.00027 µM in assay [3] and 1.32 ± 0.189 µM in assay [4].

As to `C[C@@H]1COCCN1c1cc(CNC(=O)c2cnc(N3CCN(C(=O)c4cc(Cc5n[nH]c(=O)c6ccccc56)ccc4F)CC3)nc2)nc(-c2ccnc3[nH]ccc23)n1` [Compound B14, (R)‐2‐(4‐(2‐fluoro‐5‐((4‐oxo‐3,4‐dihydrophthalazin‐1‐yl)methyl)benzoyl)piperazin‐1‐yl)‐N‐((6‐(3‐methylmorpholino)‐2‐(1H‐pyrrolo[2,3‐b]pyridin‐4‐yl)pyrimidin‐4‐yl)methyl)pyramidine‐5‐carboxamide], the IC50 is 0.09 ± 0.01 µM in assay [1], above 50 µM in assay [2], 0.0012 ± 0.0004 µM in assay [3] and 0.023 ± 0.0021 µM in assay [4].

Regarding `C[C@@H]1COCCN1c1cc(CNC(=O)c2ccc(CN3CCN(C(=O)c4cc(Cc5n[nH]c(=O)c6ccccc56)ccc4F)CC3)cc2)nc(-c2ccnc3[nH]ccc23)n1` [Compound B12, (R)‐4‐((4‐(2‐fluoro‐5‐((4‐oxo‐3,4‐dihydrophthalazin‐1‐yl)methyl)benzoyl)piperazin‐1‐yl)methyl)‐N‐((6‐(3‐methylmorpholino)‐2‐(1H‐pyrrolo[2,3‐b]pyridin‐4‐yl)pyrimidin‐4‐yl)methyl)benzamide], the IC50 in assay [1] is 2.83 ± 0.06 µM; in assay [2], above 50 µM; in assay [3] it was 0.002 ± 0.0003 µM; in assay [4], 0.037 ± 0.0042 µM.

In the case of `C[C@@H]1COCCN1c1cc(C2(NC(=O)c3cnc(N4CCN(C(=O)c5cc(Cc6n[nH]c(=O)c7ccccc67)ccc5F)CC4)nc3)CC2)nc(-c2ccnc3[nH]ccc23)n1` [Compound A12, (R)‐2‐(4‐(2‐fluoro‐5‐((4‐oxo‐3,4‐dihydrophthalazin‐1‐yl)methyl)benzoyl)piperazin‐1‐yl)‐N‐(1‐(6‐(3‐methylmorpholino)‐2‐(1H‐pyrrolo[2,3‐b]pyridin‐4‐yl)pyrimidin‐4‐yl)cyclopropyl)pyrimidine‐5‐carboxamide], the IC50 in assay [1] is 0.24 ± 0.01 µM; in assay [2], above 50 µM; in assay [3], 0.0017 ± 0.0002 µM; in assay [4], 0.105 ± 0.0072 µM.

In the case of `C[C@@H]1COCCN1c1cc(C2(NC(=O)c3ccc(C(=O)N4CCN(C(=O)c5cc(Cc6n[nH]c(=O)c7ccccc67)ccc5F)CC4)nc3)CC2)nc(-c2ccnc3[nH]ccc23)n1` [Compound A9, (R)‐6‐(4‐(2‐fluoro‐5‐((4‐oxo‐3,4‐dihydrophthalazin‐1‐yl)methyl)benzoyl)piperazine‐1‐carbonyl)‐N‐(1‐(6‐(3‐methylmorpholino)‐2‐(1H‐pyrrolo[2,3‐b]pyridin‐4‐yl)pyrimidin‐4‐yl)cyclopropyl)nicotinamide], the IC50 in assay [1] is 0.75 ± 0.16 µM; in assay [2], above 50 µM; in assay [3], 0.0006 ± 6e-05 µM; in assay [4] it was 0.032 ± 0.0093 µM.

For `C[C@@H]1COCCN1c1cc(CNC(=O)c2ccc(C(=O)N3CCN(C(=O)c4cc(Cc5n[nH]c(=O)c6ccccc56)ccc4F)CC3)cn2)nc(-c2ccnc3[nH]ccc23)n1` [Compound B11, (R)‐5‐(4‐(2‐fluoro‐5‐((4‐oxo‐3,4‐dihydrophthalazin‐1‐yl)methyl)benzoyl)piperazine‐1‐carbonyl)‐N‐((6‐(3‐methylmorpholino)‐2‐(1H‐pyrrolo[2,3‐b]pyridin‐4‐yl)pyrimidin‐4‐yl)methyl) picolinamide], the IC50 is 0.48 ± 0.03 µM in assay [1], above 50 µM in assay [2], 0.001 ± 0.00013 µM in assay [3] and 0.0311 ± 0.0047 µM in assay [4].

In the case of `C[C@@H]1COCCN1c1cc(C2(NC(=O)CNC(=O)c3cc(Cc4n[nH]c(=O)c5ccccc45)ccc3F)CC2)nc(-c2ccnc3[nH]ccc23)n1` [Compound A2, (R)‐2‐fluoro‐N‐(2‐((1‐(6‐(3‐methylmorpholino)‐2‐(1H‐pyrrolo [2,3‐b]pyridin‐4‐yl)pyrimidin‐4‐yl)cyclopropyl)amino)‐2‐oxoethyl)‐5‐((4‐oxo‐3,4‐dihydrophthalazin‐1‐yl)methyl)benzamide], the IC50 was above 50 µM in assay [1], 28.4 ± 1.65 µM in assay [2], 0.012 ± 0.0028 µM in assay [3] and 0.118 ± 0.014 µM in assay [4].

Turning to `C[C@@H]1COCCN1c1cc(C2(NC(=O)CCNC(=O)c3cc(Cc4n[nH]c(=O)c5ccccc45)ccc3F)CC2)nc(-c2ccnc3[nH]ccc23)n1` [Compound A3, (R)‐2‐fluoro‐N‐(3‐((1‐(6‐(3‐methylmorpholino)‐2‐(1H‐pyrrolo [2,3‐b]pyridin‐4‐yl)pyrimidin‐4‐yl)cyclopropyl)amino)‐3‐oxopropyl)‐5‐((4‐oxo‐3,4‐dihydrophthalazin‐1‐yl)methyl)benzamide], the IC50 in assay [1] is 27.3 ± 2.34 µM; in assay [2], above 50 µM; in assay [4] it was above 0.5 µM. In addition, the inhibition at 0.02 µM in assay [3] (@ 20 nM, read-out: PARP1 inhibitory rate at certain concentration) was found to be 31.8 ± 2.4%.

As for `C[C@@H]1COCCN1c1cc(CNC(=O)c2ccc(C(=O)N3CCN(C(=O)c4cc(Cc5n[nH]c(=O)c6ccccc56)ccc4F)CC3)nc2)nc(-c2ccnc3[nH]ccc23)n1` [Compound B10, (R)‐6‐(4‐(2‐fluoro‐5‐((4‐oxo‐3,4‐dihydrophthalazin‐1‐yl)methyl)benzoyl)piperazine‐1‐carbonyl)‐N‐((6‐(3‐methylmorpholino)‐2‐(1H‐pyrrolo[2,3‐b]pyridin‐4‐yl)pyrimidin‐4‐yl)methyl) nicotinamide], the IC50 in assay [1] is 1.7 ± 0.35 µM; in assay [2], above 50 µM; in assay [3], 0.00061 ± 0.00015 µM; in assay [4], 0.019 ± 0.0012 µM.

Consider `C[C@@H]1COCCN1c1cc(CNS(=O)(=O)c2ccc(C(=O)N3CCN(C(=O)c4cc(Cc5n[nH]c(=O)c6ccccc56)ccc4F)CC3)cc2)nc(-c2ccnc3[nH]ccc23)n1` [Compound B9, (R)‐4‐(4‐(2‐fluoro‐5‐((4‐oxo‐3,4‐dihydrophthalazin‐1‐yl)methyl)benzoyl)piperazine‐1‐carbonyl)‐N‐((6‐(3‐methylmorpholino)‐2‐(1H‐pyrrolo[2,3‐b]pyridin‐4‐yl)pyrimidin‐4‐yl)methyl) benzenesulfonamide], for which the IC50 in assay [1] was 6.88 ± 0.63 µM; in assay [2], above 50 µM; in assay [3], 0.00064 ± 0.00021 µM; in assay [4], 0.205 ± 0.0131 µM.

Consider `C[C@@H]1COCCN1c1cc(C2(NC(=O)c3ccc(N4CCN(C(=O)c5cc(Cc6n[nH]c(=O)c7ccccc67)ccc5F)CC4)cc3)CC2)nc(-c2ccnc3[nH]ccc23)n1` [Compound A11, (R)‐4‐(4‐(2‐fluoro‐5‐((4‐oxo‐3,4‐dihydrophthalazin‐1‐yl)methyl)benzoyl)piperazin‐1‐yl)‐N‐(1‐(6‐(3‐methylmorpholino)‐2‐(1H‐pyrrolo[2,3‐b]pyridin‐4‐yl)pyrimidin‐4‐yl)cyclopropyl)benzamide], for which the IC50 in assay [1] was 0.57 ± 0.02 µM; in assay [2], above 50 µM; in assay [3], 0.0023 ± 0.0005 µM; in assay [4] it was 0.292 ± 0.0139 µM.

As for `C[C@@H]1COCCN1c1cc(C2(NC(=O)CCCNC(=O)c3cc(Cc4n[nH]c(=O)c5ccccc45)ccc3F)CC2)nc(-c2ccnc3[nH]ccc23)n1` [Compound A4, (R)‐2‐fluoro‐N‐(4‐((1‐(6‐(3‐methylmorpholino)‐2‐(1H‐pyrrolo[2,3‐b]pyridin‐4‐yl)pyrimidin‐4‐yl)cyclopropyl)amino)‐4‐oxobutyl)‐5‐((4‐oxo‐3,4‐dihydrophthalazin‐1‐yl)methyl)benzamide], the 50% inhibitory concentration (IC50) was 3.08 ± 0.08 µM in assay [1], above 50 µM in assay [2], 0.0034 µM in assay [3] and above 0.5 µM in assay [4].

Consider `C[C@@H]1COCCN1c1cc(CNC(=O)c2ccc(N3CCN(C(=O)c4cc(Cc5n[nH]c(=O)c6ccccc56)ccc4F)CC3)cc2)nc(-c2ccnc3[nH]ccc23)n1` [Compound B13, (R)‐4‐(4‐(2‐fluoro‐5‐((4‐oxo‐3,4‐dihydrophthalazin‐1‐yl)methyl)benzoyl)piperazin‐1‐yl)‐N‐((6‐(3‐methylmorpholino)‐2‐(1H‐pyrrolo[2,3‐b]pyridin‐4‐yl)pyrimidin‐4‐yl)methyl)benzamide], for which the IC50 is 0.99 ± 0.06 µM in assay [1], above 50 µM in assay [2], 0.0013 ± 0.0006 µM in assay [3] and 0.022 ± 0.0017 µM in assay [4].

Source of the values: PMC12362783 (Advanced Science, 2025).
